Assay results taken from patent US11096925B2, “Indole derivatives for biofilm disruption and inhibition” (LIFE MATTERS LTD., priority 2015, dated 2021).
“Also recorded” adds a separate entry of the source.

Key:
P. aeruginosa PA01 [1] = test: Virulence factor production, spectrophotometry of cell-free culture; assay type: cell-based, Pseudomonas aeruginosa; details: for virulence factors production: P. aeruginosa PA01 grown with 50 μM compound
Protocol: (§1) FIGS. 3A-B show effect on, P. aeruginosa PA01 pathogenesis. (A) Inhibition of virulence factors production in P. aeruginosa PA01, which were grown in the presence of 50 μM NN or DIV. Tetracycline is used as positive control. Results are based on OD measurements distinctive to each factor and normalized to bacterial growth at OD600 nm. Error bars represent SD of three independent repetitions. (B) C. elegans killing assay assed by SYTOX Orange stain within 24 h.
Results are based on OD measurements specific to each factor and normalized to the growth OD of 600 nm. Bars indicate standard deviations for triplicate sets of experiments.
(§2) Driven by an arsenal of virulence factors added to the biofilm mode of growth, P. aeruginosa PA01 pathogenesis depends on the type of the infection. Therefore, both compounds were tested for their abilities to suppress prominent virulence determinants (FIG. 3A). […] Measuring nematode survivorship following exposure to P. aeruginosa in the absence and presence of modulating compounds, therefore, provides a good model for assessing the effectiveness of the novel compounds on the pathogenesis of the bacteria.
The basis of P. aeruginosa pathogenicity is an arsenal of virulence determinants designed for survival and proliferation in the host that enable bacterial invasion and the subsequent establishment of infection. The success of this microorganism is largely due to its ability to form intractable biofilms and to produce myriad virulence factors controlled by a quorum-sensing (QS) system.

P. aeruginosa PA01 [2] = test: Biofilm formation under static conditions, CLSM with Live/Dead staining; assay type: cell-based, Pseudomonas aeruginosa; details: for density of attached cells (biofilm) / mortality of the bacterial cells: 50 μM; for density of attached cells (biofilm): 18 h static incubation at 37° C.; for mortality of the bacterial cells: compared with DMSO control
Protocol: (§3) FIGS. 1A-B show prevention of biofilm formation. Confocal laser scanning micrographs (CLSM) of P. aeruginosa PA01 (A) and A. baumannii (B) formed in glass-bottomed 96 well plates after 18 h of static incubation at 37° C. Cultures were grown in the presence of either 50 μM DIV or NN, or an equivalent amount of DMSO for control. Biofilms were stained using the Live/Dead bacterial viability kit. Live, dead and total bio-volumes (μm^3/μm^2) were calculated based on image analysis and data from the IMARIS software. Bars indicate standard deviations for triplicate sets of experiments.
(§4) FIGS. 5A-D show biofilm attenuation of the pathogens P. stuartii (A), S. marcescens (B), A. baumannii (C) and P. aeruginosa PA01 (D). Cultures were grown in the presence of either 50 μM DIM or an equivalent amount of DMSO for control. Biofilms were stained with the LIVE/DEAD bacterial viability kit. For each species and per treatment, live, dead and total bio-volumes (μm^3/μm^2) were calculated based on image analysis and data from the IMARIS software, and % biofilm inhibition was calculated based on live bio-volumes. The results are the average values of analysis of at least three micrographs.
(§5) Bioflims of P. aeruginosa and A. baumanii that were developed on glass slides were determined using confocal scanning laser microscopy (CSLM) (FIG. 1). Accordingly, the density of the biofilms prior to and following treatment by NN and DIV was measured.
(§6) The current study investigated the influence of DIM on the biofilm formation process and on the destruction of existing biofilms of several pathogenic gram-negative bacterial strains.

[3] = test system: Caenorhabditis elegans infected by Pseudomonas aeruginosa; test: C. elegans killing assay; assay type: in vivo; details: SYTOX Orange stain within 24 h
Protocol: as §1, §2

[4] = test system: A549 Human Lung Cell line infected by P. aeruginosa; test: Cytotoxicity and apoptosis of A549 cells infected with pre-treated bacteria, calcein staining; assay type: cell-based; details: bacteria pre-treated with compound, 24 h
Protocol: FIGS. 4A-B show reduced adhesion and virulence of P. aeruginosa PA01 in human A549 lung cells model. (A) Cytotoxicity effect and apoptosis of A549 cells by P. aeruginosa PA01 pre-treated with DIV or NN during 24 h. The infection progress was monitored by calcein staining using Operetta screening system. All the experiments were performed in triplicates. (B) Adhesion of P. aeruginosa PA01 (5×10^7 CFU/ml) pre-treated with DIV or NN to A549 cells for 1 hr of incubation. Excess bacteria were removed and the released cells were plated followed CFU counts determination.
In order to test the possible effects of these compounds on higher organisms, we tested NN and DIV on A549 Human Lung Cell line infected by P. aeruginosa. Additional tests were carried out for NN and DIV to assess the effect of this compound to enhance the survival of A549 cells during infection with P. aeruginosa PA01. […] Due the fact that adherence to a humeral cell is considered a crucial step in the bacterial infection initiation process, P. aeruginosa PA01 pre-treated with DIV or NN was tested for its adherence potency to lung epithelial cells A549.

A. baumannii [5] = test: Biofilm formation under static conditions, CLSM with Live/Dead staining; assay type: cell-based, Acinetobacter baumannii; details: for density of attached cells (biofilm) / mortality of the bacterial cells: 50 μM; for density of attached cells (biofilm): 18 h static incubation at 37° C.; for mortality of the bacterial cells: compared with DMSO control
Protocol: as §3, §4, §5, §6

[6] = test system: P. aeruginosa PA01 mature biofilm; test: Destruction of mature biofilm in flow cell, CLSM; assay type: cell-based, Pseudomonas aeruginosa; details: 72 h biofilm, then 48 h treatment, 50 μM compound, 20 μg/ml tobramycin
Protocol: FIG. 2 depicts destruction of P. aeruginosa PA01 mature biofilm; biofilm formed in a flow cell after 72 h of incubation at 37° C. and 48 h more in the presence of 50 μM NN, 20 μg/ml Tobramycin, and 50 μM NN with 20 μg/ml tobramycin. Biofilms were stained with Live/Dead bacterial viability kit. Quantification of BioVolume; Live, dead and total bio-volumes (μm^3/μm^2) calculated based on image analysis and data from the IMARIS software. The images were acquired from three different areas in each treatment.
FIG. 6. depicts destruction of mature, differentiated biofilm of P. aeruginosa PA01. Statistical analysis of CSLM images of biofilm formed in a flow system after 120 h, and with supplementation of 50 μM DIM, 20 μg/ml Tobramycin and a combined treatment of 50 μM DIM with 20 μg/ml Tobramycin. Biofilms were stained with the LIVE/DEAD bacterial viability kit. Quantification of bio-volume: live, dead and total bio-volumes (μm^3/μm^2) were calculated based on image analysis and data from the IMARIS software.
Dynamic growth conditions in flow cell systems are considered to be representative of the real conditions in humeral tissues, where the pathogen thrives in enriched settings. […] Once the efficiency of the new compounds was tested, we proceeded to assess the efficacy of adding antibiotic treatment to the novel compounds to eradicate biofilm (FIG. 2). […] On the other hand, when treated by both the antibiotic and the NN, the biofilm was eradicated and the bacterial cells died.
To investigate the combined destructive effect of the biofilm inhibitor compound and an antibiotic, P. aeruginosa PA01 was cultured for 72 h in the continuous flow system until a mature biofilm had been established Immediately after its establishment, the biofilm was challenged with DIM and/or the antibiotic tobramycin, the known activity of which is protein synthesis inhibition (FIG. 6).

Erwinia carotovora = test: Biofilm formation by plant-associated bacteria, static 96 well plates, CLSM; assay type: cell-based; details: 50 μM, 18 h static
Protocol: Biofilm formed in glass-bottomed 96 well plates after 18 h of static incubation at 37° C. was investigated by confocal laser scanning micrographs (CLSM). Cultures were grown in the presence of either 50 μM DIM or NN, or an equivalent amount of DMSO for control. Biofilms were stained using the Live/Dead bacterial viability kit. Live, dead and total bio-volumes (μm^3/μm^2) were calculated based on image analysis and data from the IMARIS software.
Erwinia carotovora was cultured in glass-bottomed 96 well plates for 18 h in static conditions. The growth medium was provided with either 50 μM DIM or NN and the resulted biofilms was investigated using CSLM.

P. stuartii = test: Biofilm formation under static conditions, CLSM; assay type: cell-based, Providencia stuartii; details: 50 μM DIM
Protocol: as §4, §6

A. baumannii [7] = test: Biofilm formation in dynamic flow-cell system; assay type: cell-based, Acinetobacter baumannii
From the text: (§7) In addition, we tested the anti-biofilm properties of the well-studied anti-cancer compound 3,3′-Diindolylmethane (DIM), a metabolite found in cruciferous vegetables. Inhibition of biofilm establishment by DIM was investigated with different clinical pathogens under static conditions. Biofilm formation by A. baumannii and P. aeruginosa was further tested in a dynamic flow-cell system, in which biofilm inhibition levels of 86% and 76% were obtained, respectively. […] Further examination of the hypothesized synergistic effect obtained by combining conventional antibiotics with the DIM compound may offer a promising strategy for the eradication of biofilm complexes.

P. aeruginosa = test: Biofilm formation in dynamic flow-cell system; assay type: cell-based, Pseudomonas aeruginosa
From the text: as §7

S. marcescens = test: Biofilm formation under static conditions, CLSM; assay type: cell-based, Serratia marcescens; details: 50 μM DIM
Protocol: as §4, §6

P. larvae = details: agar diffusion method (Brenda et al., 2010); cited from earlier work

| SMILES | virulence factors production (P. aeruginosa PA01 [1]) | density of attached cells (biofilm) (P. aeruginosa PA01 [2]) | mortality of the bacterial cells (P. aeruginosa PA01 [2]) | survivorship of C. elegans following exposure to P. aeruginosa [3] | cytotoxicity effect and apoptosis of A549 cells by pre-treated P. aeruginosa PA01 [4] | density of attached cells (biofilm) (A. baumannii [5]) | mortality of the bacterial cells (A. baumannii [5]) | destruction of mature biofilm [6] | biofilm formation / density of attached cells (Erwinia carotovora) | other results |
| --- | --- | --- | --- | --- | --- | --- | --- | --- | --- | --- |
| c1ccc2c(c1)CC(c1cc3ccccc3[nH]1)N2 (centres unmarked) [DIV, 2-(indolin-2-yl)-1H-indole] | reduced significantly | reduction of density of attached cells | negligible mortality | pathogenesis of P. aeruginosa is reduced | suspended the cytotoxicity effect and apoptosis killing | smaller effects | negligible mortality |  |  |  |
| c1ccc2c(c1)ccn2-n1ccc2ccccc21 [NN, 1,1′-Biindole] | reduced significantly | reduction of density of attached cells; also recorded: most effective | negligible mortality | significantly increased survivorship | suspended the cytotoxicity effect and apoptosis killing | smaller effects | negligible mortality | reduced but not eradicated | prevents biofilm formation |  |
| c1ccc2c(Cc3c[nH]c4ccccc34)c[nH]c2c1 [DIM, di(1H-indol-3-yl)methane] |  |  |  |  |  |  |  | destruction of existing, stable biofilm | prevents biofilm formation | biofilm formation compared to control (P. stuartii): substantially reduced biofilms; reduction in chitinase production (P. aeruginosa PA01 [1]; 50 μM DIM): 35%; reduction in elastase (P. aeruginosa PA01 [1]; 50 μM DIM): 19%; reduction in protease (P. aeruginosa PA01 [1]; 50 μM DIM): 10%; reduction in pyocyanin (P. aeruginosa PA01 [1]; 50 μM DIM): 21%; reduction in pyoverdine (P. aeruginosa PA01 [1]; 50 μM DIM): 20%; biofilm formation compared to control (P. aeruginosa PA01 [2]; 50 μM DIM, static): substantially reduced biofilms; biofilm inhibition levels (A. baumannii [7]): 86%; biofilm inhibition levels (P. aeruginosa): 76%; biofilm formation compared to control (S. marcescens): substantially reduced biofilms; antibiotic activity against P. larvae (P. larvae): antibiotic activity; biofilm formation compared to control (A. baumannii [5]; 50 μM DIM, static): substantially reduced biofilms |
| NC[C@H]1O[C@H](O[C@H]2[C@H](O)[C@@H](O[C@H]3O[C@H](CO)[C@@H](O)[C@H](N)[C@H]3O)[C@H](N)C[C@@H]2N)[C@H](N)C[C@@H]1O [tobramycin, Tobramycin, reference compound] |  |  |  |  |  |  |  | dense biofilm similar to that of the control |  | destruction of mature biofilm ([6]; listed as antibiotic): little loss of biofilm |
